Data reported in PMC5840727, “Cysteine peptidases of Eudiplozoon nipponicum: a broad repertoire of structurally assorted cathepsins L in contrast to the scarcity of cathepsins B in an invasive species of haematophagous monogenean of common carp” (Parasites & Vectors, 2018).
Where a SMILES comes first, the peptide text is derived from it. Where no end group is shown, it is not given here. The star is where a group is joined. AMC = Cc1cc(=O)oc2cc(N*)ccc12; Cbz = O=C(OCc1ccccc1)*

Key:
Format in all cases: biochemical
[1] = target: T1, yrEnCL3 (EnCL3, E. nipponicum cathepsin L3) (Eudiplozoon nipponicum, UniProt A0A0K1L960); experiment: fluorogenic AMC release; details: 50 uM substrate, 2 mM DTT, citrate/phosphate buffer, pH optimum 6, 28 °C
T1 construct: Pichia pastoris X-33 (pPICZalpha B), His-tag; full transcript 368 residues
T1 sequence (A0A0K1L960 entry or part of it): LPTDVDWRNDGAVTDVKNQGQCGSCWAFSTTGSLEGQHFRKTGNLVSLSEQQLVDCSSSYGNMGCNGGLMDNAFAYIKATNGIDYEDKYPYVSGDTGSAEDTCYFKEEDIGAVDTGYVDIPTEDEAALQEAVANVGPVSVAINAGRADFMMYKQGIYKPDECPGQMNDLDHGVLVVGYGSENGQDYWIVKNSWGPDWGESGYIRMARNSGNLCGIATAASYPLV

[2] = target: T2, yrEnCB (EnCB, E. nipponicum cathepsin B) (Eudiplozoon nipponicum, UniProt A0A2P1FSY4); experiment: fluorogenic AMC release; details: 50 uM substrate, 2 mM DTT, citrate/phosphate buffer, pH optimum 5, 28 °C
T2 construct: Pichia pastoris X-33 (pPICZalpha B), His-tag; self-processed, deglycosylated with endoglycosidase F1, ~29 kDa; full transcript 382 residues
T2 sequence (A0A2P1FSY4 entry or part of it): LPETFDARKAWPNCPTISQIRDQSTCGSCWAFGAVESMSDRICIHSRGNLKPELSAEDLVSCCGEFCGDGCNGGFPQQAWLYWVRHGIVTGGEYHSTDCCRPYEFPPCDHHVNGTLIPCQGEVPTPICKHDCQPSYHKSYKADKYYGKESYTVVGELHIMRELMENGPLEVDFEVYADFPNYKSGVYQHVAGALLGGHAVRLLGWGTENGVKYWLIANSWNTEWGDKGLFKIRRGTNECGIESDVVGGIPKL

[3] = target: T3, yrEnCL1 (EnCL1, E. nipponicum cathepsin L1) (Eudiplozoon nipponicum, UniProt A0A0K1L8K1); experiment: fluorogenic AMC release; details: 50 uM substrate, 2 mM DTT, citrate/phosphate buffer, pH optimum 5.5, 28 °C; partially purified enzyme
T3 construct: Expressed as pro-enzyme in Pichia pastoris X-33 (pPICZalpha B), His-tag, self-processed in medium to ~28 kDa partially processed form, partially purified; full transcript 317 residues
T3 sequence (A0A0K1L8K1 entry or part of it): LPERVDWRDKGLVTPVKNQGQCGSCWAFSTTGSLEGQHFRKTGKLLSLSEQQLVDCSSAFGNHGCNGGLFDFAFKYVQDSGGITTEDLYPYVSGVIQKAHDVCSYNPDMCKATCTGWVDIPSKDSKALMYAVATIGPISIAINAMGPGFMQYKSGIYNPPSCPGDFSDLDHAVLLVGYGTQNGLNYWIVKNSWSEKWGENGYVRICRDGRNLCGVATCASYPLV

[4] = target: T1, yrEnCL3 (EnCL3, E. nipponicum cathepsin L3); experiment: fluorogenic peptidase inhibition assay (AMC release); details: read-out: % remaining activity at 10 uM
[5] = target: T3, yrEnCL1 (EnCL1, E. nipponicum cathepsin L1); experiment: as above; details: read-out: % remaining activity at 10 uM

| Compound | fluorogenic AMC release [1] | fluorogenic AMC release [2] | fluorogenic AMC release [3] | remaining activity at 10 µM [4] [%] | remaining activity at 10 µM [5] [%] |
| --- | --- | --- | --- | --- | --- |
| Cc1cc(=O)oc2cc(NC(=O)[C@H](CCCNC(=N)N)NC(=O)[C@H](Cc3ccccc3)NC(=O)OCc3ccccc3)ccc12 [Z-Phe-Arg-AMC] (Cbz-Phe-Arg-{AMC}) | Both EnCLs efficiently hydrolysed the FR substrate, and to a lesser extent the LR | The preferred substrate for yrEnCB was the FR, while RR was cleaved less efficiently | Both EnCLs efficiently hydrolysed the FR substrate, and to a lesser extent the LR |  |  |
| RKLLW-NH2 [iCL] |  |  |  | ~40 |  |
| CCCNC(=O)[C@H]1O[C@@H]1C(=O)N[C@H](C(=O)N1CCC[C@H]1C(=O)O)[C@@H](C)CC [CA-074, N-[L-3-trans-propylcarbamoyloxirane-2-carbonyl]-Ile-Pro-OH] |  |  |  | 45 to 65 | ~70 |
| Cc1cc(=O)oc2cc(NC(=O)[C@H](CCCNC(=N)N)NC(=O)[C@H](CC(C)C)NC(=O)OCc3ccccc3)ccc12 [Z-Leu-Arg-AMC] | Both EnCLs efficiently hydrolysed the FR substrate, and to a lesser extent the LR |  | Both EnCLs efficiently hydrolysed the FR substrate, and to a lesser extent the LR |  |  |
